{"source": "patent US7279324B2", "about": "“Nucleic acid encoding G-protein coupled receptor with modified DRY motif” (Duke University, priority 2001, dated 2007)", "key": {"wild type AT1AR-GFP": {"biological_target": "T1, wild type AT1AR-GFP (Rattus norvegicus, UniProt P25095)", "T1 construct": "expressed in transfected cells; host or cells: HEK-293", "T1 sequence (P25095 1-359)": "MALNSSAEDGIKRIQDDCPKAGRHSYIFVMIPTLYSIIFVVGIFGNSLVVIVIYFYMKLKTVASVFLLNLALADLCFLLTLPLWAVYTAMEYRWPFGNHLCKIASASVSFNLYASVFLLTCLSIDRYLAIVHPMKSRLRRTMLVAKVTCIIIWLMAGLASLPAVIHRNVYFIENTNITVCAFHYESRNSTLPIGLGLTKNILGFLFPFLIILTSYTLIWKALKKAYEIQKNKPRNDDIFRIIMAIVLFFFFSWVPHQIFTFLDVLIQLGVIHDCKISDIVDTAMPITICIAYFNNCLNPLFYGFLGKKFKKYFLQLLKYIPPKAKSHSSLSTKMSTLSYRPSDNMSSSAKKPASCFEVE", "assay": "Receptor-GFP localization by confocal microscopy in HEK-293 cells", "format": "cell-based", "conditions": "1 μM AngII", "experimental": "(§1) Cell Culture and Transfection—For V2R experiments: HEK-293 cells were grown in Eagle's minimal essential medium with Earle's salt (MEM) supplemented with 10% fetal bovine serum and a 1:100 dilution of penicillin/streptomycin (Sigma Chemicals, St. Louis, Mo.). Cells were transiently transfected with plasmid cDNA using a modified calcium phosphate co-precipitation method as described in Barak et al., 1997, Mol. Pharmacol., 51:177–84. For α1B-AR and AT1AR experiments: Cells were transiently transfected in 10 cm^2 dishes (Falcon) with 1 μg receptor or GRK plasmid cDNA in pCDNA3.1(−) using above modified calcium phosphate transfection coprecipitation method for inositol phosphate and binding assays. For confocal microscopy, cells were transiently transfected in collagen (Sigma) coated 35 mm^2 glass bottom confocal dishes (MatTek, Ashland, Mass.) with Lipofectamine®2000 and Opti-MEM media (Life Technologies) using a standard method (Ciccarone, V., et al., 1999, Focus 21.2, 54–55). Cells for confocal microscopy were transfected with 30 ng of βarrestin or receptor plasmid cDNA in pEGFP and 250 ng of dynamin(K44A), GRK, or receptor in pcDNA3.1/zeo.\n(§2) Confocal Microscopy—HEK-293 cells were plated on the day following transfection onto collagen (Sigma Chemical, St. Louis, Mo.) treated 35 mm^2 glass-bottomed culture dishes. […]"}, "AT1AR R126H [1]": {"biological_target": "T2, AT1AR R126H (Rattus norvegicus, UniProt P25095, L81C/R126H/S109T)", "T2 construct": "expressed in transfected cells; host or cells: HEK-293", "T2 sequence (P25095 1-359 L81C/S109T/R126H)": "T1 sequence (P25095 1-359) with L81C, S109T, R126H", "assay": "[3H]inositol phosphate accumulation in HEK-293 cells", "format": "cell-based", "conditions": "stimulated with AngII (1 μM, 1 μg elsewhere in the source)", "experimental": "Inositol Phosphate Determination—Transiently transfected HEK-293 cells in 10 cm^2 dishes were plated onto 12-well plates (Falcon) coated with […] poly-D-lysine (Sigma) and incubated overnight in MEM+10% FBS (fetal bovine serum) at 37° C. To assay for inositol phosphate production, cells were incubated overnight at 37° C. in labeling media (1 μCi/0.5 ml/well of [^3H]inositol in MEM+5% fetal bovine serum). Cells were washed with MEM, 20 mM HEPES, pH 7.4, 20 mM LiCl for 5 minutes at 37° C. and then treated with agonist. Total inositol phosphate was extracted and separated as previously described in Cotecchia, S., et al., 1992, J. Biol. Chem. 267: 1633–1639."}, "AT1AR R126H [2]": {"biological_target": "T2, AT1AR R126H", "assay": "βarrestin-GFP translocation in HEK-293 cells", "format": "cell-based", "conditions": "1 μM AngII", "experimental": "as §1, §2"}, "wild type AT1AR": {"biological_target": "T3, wild type AT1AR (Rattus norvegicus, UniProt P25095)", "T3 construct": "expressed in transfected cells; host or cells: HEK-293", "T3 sequence (P25095 1-359)": "T1 sequence (P25095 1-359)", "assay": "βarrestin-GFP translocation in HEK-293 cells", "format": "cell-based", "conditions": "1 μM AngII", "experimental": "as §1, §2"}, "α1B-AR R143E-GFP [3]": {"biological_target": "T4, α1B-AR R143E-GFP (Mesocricetus auratus, UniProt P18841, R143E)", "T4 construct": "expressed in transfected cells; host or cells: HEK-293", "T4 sequence (P18841 1-515 R143E)": "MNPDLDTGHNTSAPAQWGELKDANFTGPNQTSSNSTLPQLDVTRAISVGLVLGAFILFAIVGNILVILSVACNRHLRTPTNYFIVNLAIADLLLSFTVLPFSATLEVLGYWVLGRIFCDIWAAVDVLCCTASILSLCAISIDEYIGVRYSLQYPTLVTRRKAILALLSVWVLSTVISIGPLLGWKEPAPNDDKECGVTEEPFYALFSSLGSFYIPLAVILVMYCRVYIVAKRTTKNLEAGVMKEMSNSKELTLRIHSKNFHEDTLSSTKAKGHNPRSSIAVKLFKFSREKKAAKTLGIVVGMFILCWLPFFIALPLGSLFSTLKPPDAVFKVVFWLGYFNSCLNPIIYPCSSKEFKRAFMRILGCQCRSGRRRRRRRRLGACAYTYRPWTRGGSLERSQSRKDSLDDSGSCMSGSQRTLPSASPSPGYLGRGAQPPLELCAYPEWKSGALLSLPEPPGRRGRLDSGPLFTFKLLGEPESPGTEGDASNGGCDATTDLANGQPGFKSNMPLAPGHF", "assay": "Plasma membrane receptor expression by whole cell [3H]prazosin binding", "format": "cell-based, golden hamster", "conditions": "cultured in 10 μM phentolamine at 37° C. overnight; 8 nM [3H]prazosin", "protocol": "(§4) For α1B-AR and AT1AR experiments: Transiently transfected HEK-293 cells in 10 cm^2 dishes were washed twice in cold binding buffer (MEM+2% bovine serum albumin [BSA]), incubated for 1 hour at room temperature in binding buffer with varying concentrations of [^3H]prazosin (0.25 nM–8 nM), and washed three times in cold binding buffer to remove unbound ligand. Cell bound [^3H]prazosin was measured using a scintillation counter. Nonspecific binding was determined in the presence of 1000-fold molar excess of phentolamine (10 μM). For binding assays done to measure the effect of the co-expression of dynamin(K44A) or the addition of phentolamine in FIG. 14, a fixed concentration of 8 nM [^3H]prazosin was used."}, "wild type α1B-AR-GFP": {"biological_target": "T5, wild type α1B-AR-GFP (Mesocricetus auratus, UniProt P18841)", "T5 construct": "expressed in transfected cells; host or cells: HEK-293", "T5 sequence (P18841 1-515)": "T4 sequence (P18841 1-515 R143E) with E143R", "assay": "Receptor-GFP localization by confocal microscopy in HEK-293 cells", "format": "cell-based, golden hamster", "experimental": "as §1\n(§3) Confocal Microscopy—HEK-293 cells were plated on the day following transfection onto collagen (Sigma Chemical, St. Louis, Mo.) treated 35 mm^2 glass-bottomed culture dishes. Confocal microscopy was performed with a Zeiss laser-scanning microscope (LSM-510). GFP images were collected using the 488 nm argon excitation and a 505 nm long pass filter. For α1B-AR and AT1AR experiments: HEK-293 cells were transiently transfected in 35 mm^2 confocal dishes. Cells were stimulated with 10 μM NE or 1 μM AngII and incubated at 37° C. for 30 minutes before viewing. Alternatively, cells were cultured overnight at 37° C. in 10 μM phentolamine or 1 μM L158,809. Confocal microscopy was performed at 100× magnification with a Zeiss laser-scanning microscope (LSM-510). GFP and FITC images were collected using 488-nm excitation and a 505-nm long-pass filter."}, "α1B-AR R143E-GFP [4]": {"biological_target": "T4, α1B-AR R143E-GFP", "assay": "Receptor-GFP localization by confocal microscopy in HEK-293 cells", "format": "cell-based, golden hamster", "conditions": "cultured in 10 μM phentolamine at 37° C. overnight, no agonist", "experimental": "as §1, §3"}, "α1B-AR R143A": {"biological_target": "T6, α1B-AR R143A (Mesocricetus auratus, UniProt P18841, R143A)", "T6 construct": "expressed in transfected cells; host or cells: HEK-293", "T6 sequence (P18841 1-515 R143A)": "T4 sequence (P18841 1-515 R143E) with E143A", "assay": "[3H]prazosin whole cell binding, Scatchard analysis, HEK-293 cells", "set-up": "species or system golden hamster", "conditions": "[3H]prazosin Scatchard, similar to wild type, read-out: KD for NE", "protocol": "as §4"}, "wild type α1B-AR [5]": {"biological_target": "T7, wild type α1B-AR (Mesocricetus auratus, UniProt P18841)", "T7 construct": "expressed in transfected cells; host or cells: HEK-293", "T7 sequence (P18841 1-515)": "T4 sequence (P18841 1-515 R143E) with E143R", "assay": "[3H]prazosin whole cell binding, Scatchard analysis, HEK-293 cells", "set-up": "species or system golden hamster", "conditions": "[3H]prazosin Scatchard, read-out: KD for NE", "protocol": "as §4"}, "wild type α1B-AR [6]": {"biological_target": "T7, wild type α1B-AR", "assay": "βarrestin-GFP translocation in HEK-293 cells", "format": "cell-based, golden hamster", "conditions": "10 μM NE", "experimental": "as §1, §2"}, "α1B-AR R143 mutants [7]": {"system": "α1B-AR R143 mutants", "assay": "βarrestin-GFP translocation in HEK-293 cells", "format": "cell-based, golden hamster", "conditions": "10 μM NE (data not shown)", "experimental": "as §1, §2"}, "α1B-AR R143 mutants [8]": {"system": "α1B-AR R143 mutants", "assay": "[3H]inositol phosphate accumulation in HEK-293 cells", "format": "cell-based, golden hamster", "conditions": "10 μM NE; R143 substituted with Ala, Glu, His or Asn", "protocol": "(§5) Inositol Phosphate Determination—Transiently transfected HEK-293 cells in 10 cm^2 dishes were plated onto 12-well plates (Falcon) coated with 25 mg/ml poly-D-lysine (Sigma) and incubated overnight in MEM+10% FBS (fetal bovine serum) at 37° C. To assay for inositol phosphate production, cells were incubated overnight at 37° C. in labeling media (1 μCi/0.5 ml/well of [^3H]inositol in MEM+5% fetal bovine serum). Cells were washed with MEM, 20 mM HEPES, pH 7.4, 20 mM LiCl for 5 minutes at 37° C. and then treated with agonist."}, "wild type α1B-AR [9]": {"biological_target": "T7, wild type α1B-AR", "assay": "[3H]inositol phosphate accumulation in HEK-293 cells", "format": "cell-based, golden hamster", "conditions": "10 μM NE, 30 min., vs absence of agonist", "protocol": "as §5"}, "mock": {"system": "mock", "assay": "Whole cell cAMP accumulation in HEK-293 cells", "format": "cell-based", "conditions": "2.5 μM AVP for 15 min., mean±SD, n=3"}, "AT1AR R126H-GFP": {"biological_target": "T8, AT1AR R126H-GFP (Rattus norvegicus, UniProt P25095, L81C/R126H/S109T)", "T8 construct": "expressed in transfected cells; host or cells: HEK-293", "T8 sequence (P25095 1-359 L81C/S109T/R126H)": "T1 sequence (P25095 1-359) with L81C, S109T, R126H", "assay": "Receptor-GFP localization by confocal microscopy in HEK-293 cells", "format": "cell-based", "conditions": "cultured in 1 μM L158,809, no agonist", "experimental": "as §1, §2"}}, "note": "Where a chain is given by its changes, count along the chain named. Entries after “also recorded” stand apart in the source; their conditions may differ.", "data": [{"compound": "angiotensin II [AngII]", "values": [{"measurement": "distribution of receptor-GFP", "setting": "wild type AT1AR-GFP", "result": "internalization of the receptor into endocytic vesicles"}, {"measurement": "[3H]-IP accumulation / signaling compared to stimulated wild type AT1AR", "setting": "AT1AR R126H [1]", "result": "slight impairment of signaling; also recorded: levels identical to HEK cells transfected with wild type AT1AR"}, {"measurement": "distribution of βarrestin-GFP", "setting": "AT1AR R126H [2]", "result": "enhanced distribution of βarrestin-GFP into endocytic vesicles"}, {"measurement": "distribution of βarrestin-GFP", "setting": "wild type AT1AR", "result": "redistribution of the βarrestin-GFP into endocytic vesicles"}]}, {"compound": "Cc1ccc(N(CC2=NCCN2)c2cccc(O)c2)cc1", "note": "[phentolamine]", "values": [{"measurement": "plasma membrane receptor expression (whole cell [3H]prazosin binding)", "setting": "α1B-AR R143E-GFP [3]", "result": "increases to the level of the wild type receptor"}, {"measurement": "distribution of receptor-GFP", "setting": "wild type α1B-AR-GFP; cultured in 10 μM phentolamine at 37° C. overnight", "result": "no alteration in the expression of the receptor at the plasma membrane; also recorded: no effect on the distribution of the wild type α1B-AR-GFP"}, {"measurement": "distribution of receptor-GFP", "setting": "α1B-AR R143E-GFP [4]", "result": "complete reversal; also recorded: redistribution of the α1B-AR R143E-GFP from endosomes to the plasma membrane"}]}, {"compound": "NC[C@H](O)c1ccc(O)c(O)c1", "note": "[NE, Norepinephrine]", "values": [{"measurement": "Kd", "setting": "α1B-AR R143A", "result": "1.5 to 3.5", "unit": "nM"}, {"measurement": "Kd", "setting": "wild type α1B-AR [5]", "result": "1.5 to 3.5", "unit": "nM"}, {"measurement": "distribution of βarrestin-GFP", "setting": "wild type α1B-AR [6]", "result": "rapid translocation of βarrestin-GFP to the plasma membrane"}, {"measurement": "distribution of βarrestin-GFP", "setting": "α1B-AR R143 mutants [7]", "result": "enhances this translocation"}, {"measurement": "agonist-induced IP response", "setting": "α1B-AR R143 mutants [8]", "result": "significantly impaired ability to mediate an agonist-induced IP response"}, {"measurement": "distribution of receptor-GFP", "setting": "wild type α1B-AR-GFP; 10 μM NE, 30 minutes at 37° C.", "result": "loss of plasma membrane expression and the redistribution of the receptor to endocytic vesicles"}, {"measurement": "increase of [3H]-IP accumulation", "setting": "wild type α1B-AR [9]", "result": 6, "unit": "fold"}]}, {"compound": "NC(=O)CC[C@@H]1NC(=O)[C@H](Cc2ccccc2)NC(=O)[C@H](Cc2ccc(O)cc2)NC(=O)[C@@H](N)CSSC[C@@H](C(=O)N2CCC[C@H]2C(=O)N[C@@H](CCCN=C(N)N)C(=O)NCC(N)=O)NC(=O)[C@H](CC(N)=O)NC1=O", "note": "[AVP, Arginine vasopressin]", "values": [{"measurement": "stimulated cAMP response", "setting": "mock", "result": "0.017±0.006 (counts of [^3H]cAMP per min. per well)/(counts of [^3H]adenine uptake per minute per well)"}]}, {"compound": "CCc1nc2c(C)cc(C)nc2n1Cc1ccc(-c2ccccc2-c2nnn[nH]2)cc1", "note": "[L158,809, 2-ethyl-5,7-dimethyl-3-[[2′-(1H-tetrazol-5-yl)[1,1′-biphenyl]-4-yl]methyl]-3H-Imidazo[4,5-b]pyridine]", "values": [{"measurement": "distribution of receptor-GFP", "setting": "AT1AR R126H-GFP", "result": "reversal of the receptor localization back to the plasma membrane; also recorded: redistribution of the receptor back to the plasma membrane"}]}]}
